Measured values reported in the supplement of paper PMC10307832.

Tests used:
Experiment in all cases: relative viability (nuclei count vs DMSO), 5 days (fraction); higher = more cells survive
[1] = compound: CO[C@@H]1[C@H](N(C)C(=O)c2ccccc2)C[C@H]2O[C@]1(C)n1c3ccccc3c3c4c(c5c6ccccc6n2c5c31)C(=O)NC4 [Midostaurin]
How it was run: (§1)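 MetaXpress counted nuclei in 4× images of lung cancer cell lines that had been fixed, permeabilised and Hoechst-stained in one step. Before that, cells in 1536-well plates were kept overnight at 37 °C, pinned with five √10-spaced library-drug doses on vehicle-anchored plates, and cultured 5 days without medium change. Viability takes treated-well nuclei over vehicle-well nuclei and uses the median across plates. Plates were accepted only at control CV below 25% and at least one doubling.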

[2] = compound: COc1cc(-c2nn([C@H]3CC[C@H](N4CCN(C(C)=O)CC4)CC3)c3ncnc(N)c23)ccc1NC(=O)c1cc2ccccc2n1C
How it was run: as §1

[3] = compound: CO[C@@H]1[C@H](N(C)C(=O)c2ccccc2)C[C@H]2O[C@]1(C)n1c3ccccc3c3c4c(c5c6ccccc6n2c5c31)C(=O)NC4 [Midostaurin] + Nc1nc2[nH]cc(CCc3ccc(C(=O)N[C@@H](CCC(=O)O)C(=O)O)cc3)c2c(=O)[nH]1 [Pemetrexed] (partner 0.2 µM)
How it was run: (§2)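 The day after seeding in 1536-well plates, lung cancer cell lines were treated by pin tool with a single drug, or with a fixed anchor-drug dose together with five library-drug doses (not always all listed) in √10 steps. After 5 days, a combined fix-and-stain solution (final 0.05% Triton X-100, 1% formaldehyde, 1 ug/ml Hoechst) was added. Nuclei counted on 4× images gave relative viability as treated counts over vehicle counts, reported as the median of duplicate plates.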

[4] = compound: CO[C@@H]1[C@H](N(C)C(=O)c2ccccc2)C[C@H]2O[C@]1(C)n1c3ccccc3c3c4c(c5c6ccccc6n2c5c31)C(=O)NC4 [Midostaurin] + Cc1nc(NC(=O)N2CCC[C@H]2C(N)=O)sc1-c1ccnc(C(C)(C)C(F)(F)F)c1 [Alpelisib] (partner 2 µM)
How it was run: as §2

[5] = compound: COc1cc(-c2nn([C@H]3CC[C@H](N4CCN(C(C)=O)CC4)CC3)c3ncnc(N)c23)ccc1NC(=O)c1cc2ccccc2n1C + CC(C)C[C@H](NC(=O)[C@H](Cc1ccccc1)NC(=O)c1cnccn1)B(O)O [Bortezomib] (partner 0.002 µM)
How it was run: as §2

Row | Cell Line | relative viability ([1]; 0.01 µM) | relative viability ([1]; 0.03162 µM) | relative viability ([1]; 0.1 µM) | relative viability ([1]; 0.3162 µM) | relative viability ([2]; 0.0128 µM) | relative viability ([2]; 0.04048 µM) | relative viability ([2]; 0.128 µM) | relative viability ([2]; 1.28 µM) | relative viability ([3]; first compound 0.01 µM) | relative viability ([3]; first compound 0.03162 µM) | relative viability ([3]; first compound 0.1 µM) | relative viability ([3]; first compound 0.3162 µM) | relative viability ([4]; first compound 0.01 µM) | relative viability ([4]; first compound 0.03162 µM) | relative viability ([4]; first compound 0.1 µM) | relative viability ([4]; first compound 0.3162 µM) | relative viability ([5]; first compound 0.0128 µM) | relative viability ([5]; first compound 0.04048 µM) | relative viability ([5]; first compound 0.128 µM) | relative viability ([5]; first compound 1.28 µM)
1 | NCI-H1623 | 0.982 | 0.956 | 1.05 | 1.23 | 1.01 | 1.05 | 0.946 | 0.739 |  |  |  |  |  |  |  |  |  |  |  | 
2 | NCI-H1944 | 0.963 | 0.987 | 0.931 | 1.15 | 1.09 | 0.983 | 0.921 | 0.769 | 0.61 | 0.579 | 0.566 | 0.642 | 0.799 | 0.908 | 0.887 | 0.946 |  |  |  | 
3 | NCI-H1703 | 0.958 | 0.869 | 0.64 | 0.266 | 0.968 | 0.581 | 0.803 | 0.324 |  |  |  |  | 0.343 | 0.369 | 0.27 | 0.209 | 0.286 | 0.45 | 0.298 | 0.235
4 | Calu-6 | 0.946 | 0.984 | 0.985 | 1.01 | 1.04 | 1.04 | 0.899 | 0.764 |  |  |  |  | 0.944 | 0.913 | 0.914 | 0.766 | 1.04 | 1.05 | 0.869 | 0.754
5 | EBC-1 | 1.01 | 0.9 | 0.959 | 0.684 | 1.06 | 1.07 | 1.01 | 1.02 |  |  |  |  | 0.871 | 0.735 | 0.746 | 0.605 | 0.575 | 0.554 | 0.521 | 0.481
6 | NCI-H358 | 0.949 | 0.93 | 1.08 | 0.85 | 0.889 | 0.703 | 0.702 | 0.335 | 0.158 | 0.167 | 0.173 | 0.159 | 0.891 | 0.719 | 0.954 | 0.768 |  |  |  | 
7 | IA-LM | 0.93 | 0.677 | 0.918 | 0.941 | 1.04 | 0.999 | 1.05 | 0.991 |  |  |  |  | 0.853 |  | 0.821 | 0.891 | 0.847 | 1.07 | 0.896 | 0.631
8 | NCI-H1793 | 1.16 | 0.848 | 0.89 | 0.762 | 0.904 | 0.827 | 0.858 | 0.649 | 0.926 | 1.01 | 0.782 | 0.673 | 0.705 | 0.601 | 0.664 | 0.662 |  |  |  | 
9 | NCI-H2342 | 0.913 | 0.903 | 1.04 | 0.989 | 0.807 | 1.03 | 1 | 0.932 | 0.785 | 0.72 | 0.794 | 0.73 |  |  |  |  |  |  |  | 
10 | NCI-H1299 | 1.01 | 0.974 | 0.975 | 0.965 | 1.06 | 1.11 | 1 | 1 |  |  |  |  | 1.03 | 1.05 | 1.04 | 1.03 | 1.02 | 1.14 | 1.06 | 1.22
11 | SW 900 | 0.821 | 0.777 | 0.964 | 0.745 | 1.03 | 0.986 | 0.788 | 1 | 0.468 | 0.477 | 0.488 | 0.478 |  |  |  |  |  |  |  | 
12 | NCI-H727 | 1.03 | 0.82 | 1.05 | 0.767 | 0.974 |  | 0.826 | 0.906 |  |  |  |  | 0.526 | 0.471 | 0.538 | 0.296 | 0.834 |  | 0.808 | 1.06
13 | SK-MES-1 | 0.998 | 0.92 | 0.967 | 0.89 | 1.02 | 1.07 | 1.01 | 0.912 | 0.856 | 0.826 | 0.885 | 0.854 | 0.886 | 0.818 | 0.986 | 0.671 |  |  |  | 
14 | NCI-H1648 | 0.937 | 0.803 | 0.724 | 0.927 | 0.964 | 0.766 | 0.858 | 0.721 | 0.671 |  |  | 0.823 |  |  |  |  |  |  |  | 
15 | NCI-H522 | 1.07 | 1.06 | 0.947 | 1.04 | 0.936 | 0.875 | 0.954 | 0.885 | 1.19 | 1.14 | 0.941 | 1.24 |  |  |  |  |  |  |  | 
16 | LK-2 | 0.998 | 1.04 | 0.947 | 1 | 1 | 0.949 | 0.943 | 0.794 | 0.265 | 0.262 | 0.299 | 0.342 | 1.09 | 1.48 | 1.11 | 1.05 |  |  |  | 
17 | NCI-H1395 | 0.919 | 0.977 | 0.88 | 0.922 | 0.907 | 0.847 | 0.798 | 0.659 | 0.791 | 1.09 | 0.748 | 0.846 | 1.09 | 1.08 | 1.3 | 1.22 |  |  |  | 
18 | A549 | 0.994 | 0.857 | 0.953 | 0.744 | 0.995 | 0.952 | 0.979 | 0.957 |  |  |  |  | 0.742 | 0.705 | 0.679 | 0.265 |  |  |  | 
19 | NCI-H2170 | 0.973 | 0.941 | 1.01 | 1 | 1.07 | 0.996 | 0.991 | 0.821 | 0.297 | 0.268 | 0.265 | 0.266 | 0.828 | 0.856 | 0.722 | 0.707 |  |  |  | 
20 | ABC-1 | 0.867 | 0.962 | 0.948 | 0.96 | 0.879 | 0.885 | 0.756 | 0.805 |  |  |  |  | 1.05 | 0.879 | 0.816 | 0.897 | 0.212 | 0.32 | 0.26 | 0.3
